Source: patent publication US6360743B1, “System for dispensing pharmaceutical active compounds” (AB Astra, priority 1992, dated 2002)

Experiments:
[1] = Absolute systemic availability and lung deposition of inhaled budesonide (plasma LC-MS); type: in vivo, healthy subjects; details: for Cmax / Tmax: human, plasma, inhaled or intranasal, 1 mg, 1 mg inhaled; for absolute systemic availability (geometric mean): 1 mg as five inhalations of 200 micrograms, vs 0.5 mg intravenously; for amount deposited and absorbed in the lung (geometric mean, range): calculated assuming 13% availability of swallowed budesonide
Procedure: In order to determine the absolute systemic availability and the amount of budesonide deposited and absorbed in the lung after inhalation via TURBUHALER and via an MDI, 24 healthy subjects were given budesonide 1 mg as five inhalations of 200 micrograms each, via TURBUHALER inhaler or via MDI, and 0.5 mg intravenously, on separate study days. Budesonide levels were determined in plasma by a LC-MS method. The amount of budesonide absorbed in the lung was calculated on the assumption of an availability of swallowed budesonide of 13%. Furthermore, absorption in the lung was calculated in 13 of the subjects after inhalation with concomitant oral dosing of charcoal to prevent absorption of budesonide from the gastrointestinal track. There was good conformity between the two modes of calculation.

[2] = generally regarded; cited from earlier work

| lung deposition from TURBUHALER relative to MDI ([1]; TURBUHALER versus MDI) | Cmax ([1]; via MDI) [nM] | Tmax ([1]; via MDI) [min] | Cmax ([1]; via TURBUHALER) [nM] | Tmax ([1]; via TURBUHALER) [min] | absolute systemic availability (geometric mean) ([1]; via MDI) [%] | amount deposited and absorbed in the lung (geometric mean, range) ([1]; via MDI) | absolute systemic availability (geometric mean) ([1]; via TURBUHALER) [%] | amount deposited and absorbed in the lung (geometric mean, range) ([1]; via TURBUHALER) | Compound | dose regarded as equipotent to 0.25 mg of terbutaline sulphate [2] [mg] |
| --- | --- | --- | --- | --- | --- | --- | --- | --- | --- | --- |
| twice that from an MDI | 2.3 | 30 | 3.6 | 18 | 28 | 15% (3%-47%) | 38 | 32% (16%-59%) | CCCC1O[C@@H]2C[C@H]3[C@@H]4CCC5=CC(=O)C=C[C@]5(C)[C@H]4[C@@H](O)C[C@]3(C)[C@]2(C(=O)CO)O1 (stereo partly shown) [budesonide] |  |
|  |  |  |  |  |  |  |  |  | CC(C)(C)NCC(O)c1ccc(O)c(CO)c1 (stereo not shown) [salbutamol] | 0.1 |
